According to publication PMC6928796, “Near-Infrared Markers based on Bacterial Phytochromes with Phycocyanobilin as a Chromophore” (International Journal of Molecular Sciences, 2019):

What was measured:
iRFP713 [1] = biological target: T1, iRFP713 (Rhodopseudomonas palustris, UniProt G1FNL7, C15S); assay: absorption and fluorescence spectroscopy; BV/PCB competition; type: binding; details: not covalent; overnight with both tetrapyrroles, BV to PCB molar ratio 0.02 to 80
T1 construct: gene iRFP

iRFP713 [2] = biological target: T1, iRFP713; assay: absorption, fluorescence, zinc-stained SDS-PAGE; BV/PCB competition; type: binding; details: not covalent; apoprotein with 2-fold excess PCB, pH 8.0, 4 °C

SMILES | absorption and fluorescence spectroscopy; BV/PCB competition (iRFP713 [1]) | absorption, fluorescence, zinc-stained SDS-PAGE; BV/PCB competition (iRFP713 [2])
C=CC1=C(C)C(=Cc2[nH]c(C=C3N=C(C=C4NC(=O)C(C)=C4C=C)C(C)=C3CCC(=O)O)c(CCC(=O)O)c2C)NC1=O [BV, biliverdin IXα] | The binding affinity of BV ligand to iRFP713/C15S | –
C/C=C1/C(=C/c2[nH]c(/C=C3N=C(/C=C4\NC(=O)C(CC)=C4C)C(C)=C\3CCC(=O)O)c(CCC(=O)O)c2C)NC(=O)[C@@H]1C [PCB, phycocyanobilin] | – | iRFP713/C15S, lacking the conserved Cys15 residue, forms a fluorescent complex with PCB
